Laboratory results: US12060388B2, “Cell-penetrating peptides and methods of use thereof” (priority 2018, dated 2024)

Tests used:
Format in all cases: cell-based
[1] = test system: HPV16 PsV containing GFP11-tagged L2; assay: Split GFP assay with peptide, HaCaT/GFP1-10NES cells; details: 30 μM, MOI of 2000, three h.p.i.
Protocol: FIG. 26A depicts clonal HaCaT/GFP1-10NES cells expressing cytosolic GFP1-10 infected at MOI of 2000 with untagged HPV16 or with HPV16 PsV containing GFP11-tagged L2 in the absence or presence of 30 μM P16/16. Three h.p.i., cells were stained with Hoescht 33342 to visualize nuclei (blue) and examined by confocal microscopy for GFP fluorescence. FIG. 26B the corrected total cellular fluorescence (CTCF) of each cell was calculated and plotted in arbitrary units from three independent experiments. n.s., not significant. FIG. 26C depicts HaCaT/GFP-10NES cells infected as described in FIG. 26A with wild-type HPV16 PsV in the presence of 30 μM P16/16 or in its absence for three hours, followed by removal of PsV and incubation with medium containing peptide for an additional 48 hours. Cells were assessed by flow cytometry to determine reporter protein expression. Infectivity was normalized with that in the absence of peptide. **, p<0.01.
To determine if the cytoplasmic protrusion of L2 of PsV is inhibited by peptides, the split GFP assay was performed. 3×104 clonal HaCaT/GFP1-10NES expressing GFP1-10NES in the cytoplasm were seeded in eight-chambered glass slides and incubated with peptides for an hour prior to infection at MOI of ˜2000 with HPV16 PsV containing wild-type L2 or L2 containing inserted GFP11. […]

[2] = test system: HPV16 PsV; assay: Inhibition of HPV16 PsV infection of HaCaT keratinocytes; details: 14 μM, MOI of 1, 48 h.p.i.
Source text: FIG. 18A (top) depicts sequences of L2 peptides. […] Amino acid substitutions in the CPP or RBS mutant peptides are shown in orange and blue, respectively. Bottom: RBS and flanking sequences of indicated HPV L2 proteins or DMT1-II. FIG. 18B depicts an inhibitory dose-response curve for P16/16 peptide. 5×10^4 HeLa-S3 in 24-well plates were pretreated with various concentrations of P16/16 for one hour prior to infection with HPV pseudovirus (PsV) at multiplicity of infection (MOI) of 1. Peptide was left in the medium for the duration of the experiment. Cells were assessed by flow cytometry to determine the fraction of cells expressing reporter protein HcRed at 48 hours post-infection (h.p.i.). […] Forty-eight h.p.i., cells were assessed by flow cytometry to determine fraction of cells expressing reporter protein HcRed. […] HaCaT keratinocytes were infected at MOI of 1 with HPV16 PsV in the presence and absence of 14 μM P16/16, and infectivity was assessed 48 h.p.i. by flow cytometry for HcRed fluorescence. […] Successful infection by HPV16 and HPV16 PsV was assessed by quantitative reverse transcription-PCR (qRT-PCR) for expression of HPV early region and HcRed mRNA, respectively, and normalized to infection by the cognate virus in the absence of peptide. Background signal determined with non-cognate primers was <0.01%.

[3] = test system: SV40; assay: SV40 infection of HeLa-S3 cells, flow cytometry for large T antigen; details: 14 μM, MOI of ~1, 48 h.p.i.
Protocol: HeLa-S3 cells were treated with 14 μM P16/16 peptide or vehicle for one hour then infected with SV40 at MOI of ˜1. Forty-eight h.p.i., cells were washed, fixed, and permeabilized with cold methanol for 30 min. Cells were stained for intracellular SV40 large T antigen with fluorophore-conjugated monoclonal antibody PAb101, followed by flow cytometry. The histograms show number of cells and […] fluorescence in the absence or presence of peptide. Traces correspond to mock-infected cells (Line C), mock-infected cells in the presence of peptides (Line D), SV40-infected cells (Line A), and SV40-infected cells in the presence of peptides (Line B).
For studies of SV40 infection, 7.5×105 HeLa-S3 in 6-well plates were incubated with peptides prior to infection. Cells were infected with a crude preparation of SV40 at MOI of ˜1 and fixed with 4% paraformaldehyde at 48 h.p.i. Samples were stained with FITC-conjugated anti-large T antigen antibody (Pab101) (Santa Cruz, pSC147 FITC), followed by flow cytometry to determine the mean fluorescent intensity of T antigen staining.

[4] = test system: TGN46 / HPV16 L1; assay: Proximity ligation assay for L1 and TGN46 in peptide-treated infected cells; details: 14 μM, MOI of 200, 16 h.p.i.
Protocol: HeLa-S3 cells grown on glass coverslips for 16 hours were incubated for one hour with or without 14 μM P16/16, followed by mock-infection or infection with HPV16 PSV at MOI of 200. 8 and 16 h.p.i., cells were processed for PLA with anti-L1 antibody and an antibody recognizing EEA1 (FIG. 20A) or TGN46 (FIG. 20B). PLA was performed as in FIG. 19B. The PLA signal for EEA1/L1 was normalized to that of cells infected with HPV16 PsV in the absence of peptide at 8 h.p.i., while the TGN46/L1 signal was normalized to untreated cells at 16 h.p.i.
For the proximity ligation assay, after an hour incubation with peptides, HeLa-S3 cells were infected with wild-type PSV at MOI of 200 or mutant PsV containing the same number of reporter plasmid genomes. Infected cells were fixed at 8 or 16 h.p.i., permeabilized, and incubated with 1:100 dilutions of anti-L1 antibody and an antibody recognizing EEA1, TGN46, or VPS35. […] The nuclei were stained by using Abcam fluorescence mounting medium with DAPI and images were acquired by a Leica SP5 inverted fluorescence microscope. […] The images were processed by Fiji and quantitatively analyzed by BlobFinder software to measure total fluorescence intensity in each sample. The average fluorescence intensity per cell in each sample was normalized to the control sample as indicated in each experiment. […]

## CC[C@H](C)[C@H](NC(=O)[C@@H](NC(=O)[C@H](Cc1ccc(O)cc1)NC(=O)[C@H](CCC(N)=O)NC(=O)[C@@H]1CCCN1C(=O)[C@H](CO)NC(=O)[C@@H](N)CS)[C@@H](C)O)C(=O)N[C@H](C(=O)N[C@@H](C)C(=O)N[C@@H](CC(=O)O)C(=O)N[C@@H](C)C(=O)NCC(=O)N[C@@H](CC(=O)O)C(=O)N[C@@H](Cc1ccccc1)C(=O)N[C@@H](Cc1ccc(O)cc1)C(=O)N[C@@H](CC(C)C)C(=O)N[C@@H](Cc1c[nH]cn1)C(=O)N1CCC[C@H]1C(=O)N[C@@H](CO)C(=O)N[C@@H](Cc1ccc(O)cc1)C(=O)N[C@@H](Cc1ccc(O)cc1)C(=O)N[C@@H](CCSC)C(=O)N[C@@H](CC(C)C)C(=O)N[C@@H](CCCNC(=N)N)C(=O)N[C@@H](CCCCN)C(=O)N[C@@H](CCCNC(=N)N)C(=O)N[C@@H](CCCNC(=N)N)C(=O)N[C@@H](CCCCN)C(=O)N[C@@H](CCCNC(=N)N)C(=O)O)[C@@H](C)CC [P16/16]
[1]
  protrusion of L2 C terminus into the cytoplasm (reconstituted GFP): did not inhibit protrusion of the C terminus of the L2 protein into the cytoplasm
[2]
  inhibition of HPV16 PsV infection in HaCaT: inhibited infection
[3]
  inhibition of SV40 infection: did not inhibit
[4]
  TGN46/L1 PLA at 16 h.p.i.: inhibited the arrival of HPV in the TGN
